In patent US20040213837A1, “Oil-core compositions for the sustained release of hydrophobic drugs” (priority 2002, published 2004):
Values after ≈ are worked out from the molar mass of the structure shown. Structures can show the parent of a compound that is named as a salt.

What was measured:
[1] = system: microtubule bundling; conditions: Rowinsky et al., Cancer Research 48: 4093-4100, 1988; cited from earlier work
[2] = In vivo concentration-time course of paclitaxel after intraperitoneal injection; conditions: rat, 16 mg/kg intraperitoneal, OCP or conventional formulation, HPLC
Description: “Conventional” formulations of paclitaxel were prepared by adding 6 mg paclitaxel to 1 mL of a mixture (1:1, v/v) of anhydrous alcohol and Cremophor® EL (Sigma Chemical Company, St. Louis, Mo.). […] At the indicated time points, animals were euthanized and blood, peritoneal fluid, liver, and spleen samples were collected, processed and quickly frozen.
Paclitaxel concentrations in plasma, peritoneal fluid, and homogenized tissues were determined by HPLC after liquid-liquid extraction of the samples with diethyl ether followed by solid-phase extraction (Bond Elut; Varian, Harbor City, Calif.). The samples were then suspended in 45:15:40 acetonitrile:methanol:water, and 50 μL was injected onto a Waters Symmetry C18 column (Waters, Taunton, Mass.) with a Hewlett-Packard Model 1100 solvent delivery system (Hewlett-Packard, Wilmington, Del.). The mobile phase was a mixture of acetonitrile, methanol, and 0.2 M ammonium acetate at pH 5 (45:15:40) with a rate of 1 mL/min; detection was at a wavelength of 230 nm. Apparent terminal half-lives (T1/2beta) were estimated from the terminal log-linear decline of the concentration-time profiles.

[3] = Solubility of bupivacaine free-base in triolein or tricaprylin; type: physicochemical
Description: To confirm that the formation of bupivacaine crystals was related to differing solubility of the drug in the oils used, a solubility experiment was performed. Varying amounts of bupivacaine free-base were added to 1.0 g aliquots of either triolein or tricaprylin in small vials with Teflon-lined screw caps. These vials were heated to ˜70° C., shaken vigorously, cooled to room temperature, then 1.0 mL of 10 mM lysine/5% sorbitol was added to each vial. The vials were put in a 4° C. cold room for a month. […] This vial was the only one in which a precipitate disappeared upon warming to room temperature.

[4] = system: response to pin pricks; assay: Guinea pig intracutaneous injection, response to pin pricks; type: in vivo, guinea pigs; conditions: 1.0 mL intracutaneous, equivalent to 1% bupivacaine HCl monohydrate
Description: This is used in an assay of anesthetic effect. Previously shaved guinea pigs (4-5 per group) were marked with a stencil in the form of a circular array, with 17 tick marks at various radii and directions from the center of the array. Animals anesthetized with Halothane were injected intracutaneously with 1.0 mL of either the tricaprylin-core bupivacaine suspension or a solution of 1% bupivacaine HCl monohydrate in 5% sorbitol. The response to pin pricks was tested at various post-injection intervals (30 min, 3, 6, 9, 12, 18, 24, 30 and 36 hours) and the results summarized in FIG. 3. A vocalization or muscle twitch was considered a positive response. The guinea pigs' response to the bupivacaine solution decayed to half of its maximum at about 3.6 hours after injection. An equivalent (on a molar basis) dose of bupivacaine free base tricaprylin-core suspension took about 8½ hours to decay to the same number of negative responses, and took about 11 hours to decay to half of the maximal response for this formulation.

[5] = 4° C. for a month, with 10 mM lysine/5% sorbitol

CC(=O)O[C@H]1C(=O)[C@@]2(C)[C@H]([C@H](OC(=O)c3ccccc3)[C@]3(O)C[C@H](OC(=O)[C@H](O)[C@@H](NC(=O)c4ccccc4)c4ccccc4)C(C)=C1C3(C)C)[C@]1(OC(C)=O)CO[C@@H]1C[C@@H]2O [Paclitaxel, paclitaxel]
minimum inhibitory concentration required to induce microtubule bundling and other cytotoxic effects in vitro [1]: 0.085 µg/mL (≈ 0.0995 µM)
Paclitaxel levels in plasma [2]: below the limit of detection

CCCCN1CCCCC1C(=O)Nc1c(C)cccc1C (centres unmarked) [bupivacaine free-base, bupivacaine]
relative solubility in tricaprylin and triolein [3]: more soluble in tricaprylin than in triolein
bupivacaine content at which no precipitates were seen, in tricaprylin [3, 5]: ≤ 40 mg per g tricaprylin
bupivacaine content at which no precipitates were seen, in triolein [3, 5]: ≤ 20 mg per g triolein
bupivacaine content at which precipitates or large masses were seen, in tricaprylin [3, 5]: ≥ 50 mg per g tricaprylin
bupivacaine content at which precipitates or large masses were seen, in triolein [3, 5]: ≥ 30 mg per g triolein

CCCCN1CCCCC1C(=O)Nc1c(C)cccc1C (centres unmarked) [bupivacaine solution, bupivacaine HCl monohydrate]
time for response to decay to half of its maximum [4]: about 3.6 hours
